Assay results taken from patent EP1976513B1 (priority 2006, dated 2007).
Like-named read-outs stand apart in the source and are kept apart here.

Columns and labels:
serotonin transporter = target: T1, serotonin transporter (Rattus norvegicus, UniProt P31652); experiment: biochemical; conditions: Rat IC50 (nM) rSERT, rat synaptosomes, serotonin transporter (SERT)
T1 construct: synaptosomes isolated in a 0.32M sucrose buffer from a male Wistar rat cortex; from tissue; host or cells: male Wistar rat cortex synaptosomes
T1 sequence (P31652 whole entry): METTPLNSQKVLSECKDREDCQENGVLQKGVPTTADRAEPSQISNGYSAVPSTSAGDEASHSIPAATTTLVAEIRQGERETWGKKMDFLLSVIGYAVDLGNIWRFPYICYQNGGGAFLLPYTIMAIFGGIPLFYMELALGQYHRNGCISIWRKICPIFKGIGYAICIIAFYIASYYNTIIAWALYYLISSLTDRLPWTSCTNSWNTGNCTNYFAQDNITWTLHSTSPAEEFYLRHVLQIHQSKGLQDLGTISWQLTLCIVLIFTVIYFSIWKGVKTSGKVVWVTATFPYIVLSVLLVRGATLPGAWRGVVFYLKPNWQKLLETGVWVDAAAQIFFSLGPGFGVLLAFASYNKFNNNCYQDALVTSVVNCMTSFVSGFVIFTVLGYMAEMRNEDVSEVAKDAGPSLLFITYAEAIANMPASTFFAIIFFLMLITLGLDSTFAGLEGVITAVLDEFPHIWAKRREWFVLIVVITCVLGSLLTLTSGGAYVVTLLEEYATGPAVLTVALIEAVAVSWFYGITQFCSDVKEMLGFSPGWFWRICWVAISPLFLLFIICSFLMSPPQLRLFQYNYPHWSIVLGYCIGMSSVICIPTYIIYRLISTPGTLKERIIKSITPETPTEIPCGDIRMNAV

dopamine transporter = target: T2, dopamine transporter (Rattus norvegicus, UniProt P23977); experiment: biochemical; conditions: Rat IC50 (nM) rDAT, rat synaptosomes, dopamine transporter (DAT)
T2 construct: synaptosomes isolated in a 0.32 M sucrose buffer from a male Wistar rat striatum; from tissue; host or cells: male Wistar rat striatum synaptosomes
T2 sequence (P23977 whole entry): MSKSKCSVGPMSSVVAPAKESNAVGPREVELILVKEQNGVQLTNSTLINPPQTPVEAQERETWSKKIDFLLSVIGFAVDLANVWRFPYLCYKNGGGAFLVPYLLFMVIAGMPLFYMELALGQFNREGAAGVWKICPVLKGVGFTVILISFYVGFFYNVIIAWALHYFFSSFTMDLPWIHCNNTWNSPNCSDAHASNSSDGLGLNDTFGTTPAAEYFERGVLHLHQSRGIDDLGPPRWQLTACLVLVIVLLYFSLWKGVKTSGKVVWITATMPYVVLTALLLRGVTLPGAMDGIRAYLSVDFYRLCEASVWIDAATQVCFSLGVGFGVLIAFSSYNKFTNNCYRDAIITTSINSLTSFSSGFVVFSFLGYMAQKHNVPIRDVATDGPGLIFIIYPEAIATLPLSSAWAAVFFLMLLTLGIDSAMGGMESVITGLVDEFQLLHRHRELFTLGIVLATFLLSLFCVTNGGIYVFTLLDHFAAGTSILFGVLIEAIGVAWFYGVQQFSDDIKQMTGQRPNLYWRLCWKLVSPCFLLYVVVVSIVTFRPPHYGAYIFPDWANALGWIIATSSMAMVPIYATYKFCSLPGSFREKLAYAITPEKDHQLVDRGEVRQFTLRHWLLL

[1] = target: T3, norepinephrine transporter (Rattus norvegicus, UniProt Q63380); experiment: biochemical; type: biochemical; conditions: Rat IC50 (nM) rNET, rat synaptosomes, norepinephrine transporter (NET)
T3 construct: synaptosomes isolated in a 0.32 M sucrose buffer from a male Wistar rat hypothalamus; from tissue; host or cells: male Wistar rat hypothalamus synaptosomes
T3 sequence (Q63380 1-617): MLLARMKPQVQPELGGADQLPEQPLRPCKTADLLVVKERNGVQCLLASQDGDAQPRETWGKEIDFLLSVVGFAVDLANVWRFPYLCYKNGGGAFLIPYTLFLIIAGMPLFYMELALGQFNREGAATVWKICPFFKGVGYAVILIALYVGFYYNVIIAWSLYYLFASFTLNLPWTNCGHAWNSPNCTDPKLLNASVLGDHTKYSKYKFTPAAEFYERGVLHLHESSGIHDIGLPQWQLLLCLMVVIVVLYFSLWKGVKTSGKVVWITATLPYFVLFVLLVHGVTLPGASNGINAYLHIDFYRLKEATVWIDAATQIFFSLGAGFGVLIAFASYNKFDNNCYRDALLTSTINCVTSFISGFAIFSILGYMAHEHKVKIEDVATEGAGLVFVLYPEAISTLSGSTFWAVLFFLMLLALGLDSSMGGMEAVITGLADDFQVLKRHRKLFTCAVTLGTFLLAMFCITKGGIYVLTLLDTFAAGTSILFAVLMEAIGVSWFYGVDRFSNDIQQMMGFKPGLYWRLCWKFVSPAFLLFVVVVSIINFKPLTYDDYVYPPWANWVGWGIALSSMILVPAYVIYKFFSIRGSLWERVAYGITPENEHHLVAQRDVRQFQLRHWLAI

[2] = target: T4, 5-HT Transporter (SERT) Sites in Mouse Brain (Mus musculus, UniProt Q60857); experiment: Ex vivo [3H] citalopram binding after oral dosing; parameters: species or system C57BL/6 mice; conditions: for % Transporter Occupancy, SERT: 60 minutes after treatment, vs vehicle; for Mean Specific Binding (dpm) ± S.E.M., SERT: mice sacrificed 60 minutes after treatment, cortex
T4 construct: Whole brains were removed and cortex and striata dissected out; from tissue; host or cells: C57BL/6 mouse frontal cortex homogenate
T4 sequence (Q60857 whole entry): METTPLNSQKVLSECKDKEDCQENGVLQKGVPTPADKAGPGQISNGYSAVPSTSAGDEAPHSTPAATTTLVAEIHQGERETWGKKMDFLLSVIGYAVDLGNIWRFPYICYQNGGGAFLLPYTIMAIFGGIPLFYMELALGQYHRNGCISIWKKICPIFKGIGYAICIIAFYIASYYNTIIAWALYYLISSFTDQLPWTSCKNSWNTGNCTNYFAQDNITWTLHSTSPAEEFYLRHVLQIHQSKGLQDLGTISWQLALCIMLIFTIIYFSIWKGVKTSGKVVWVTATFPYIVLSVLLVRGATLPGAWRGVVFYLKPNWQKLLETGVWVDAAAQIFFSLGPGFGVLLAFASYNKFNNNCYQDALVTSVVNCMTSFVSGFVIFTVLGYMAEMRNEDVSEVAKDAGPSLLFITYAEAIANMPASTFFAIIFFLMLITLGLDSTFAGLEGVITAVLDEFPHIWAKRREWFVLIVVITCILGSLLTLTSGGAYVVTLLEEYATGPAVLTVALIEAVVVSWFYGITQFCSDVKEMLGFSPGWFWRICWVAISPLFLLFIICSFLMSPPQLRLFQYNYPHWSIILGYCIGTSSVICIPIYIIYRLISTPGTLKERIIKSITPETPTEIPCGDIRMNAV

[3] = target: T5, DA Transporter (DAT) Sites in Mouse Brain (Mus musculus, UniProt Q61327); experiment: Ex vivo [3H] WIN 35428 binding after oral dosing; parameters: species or system C57BL/6 mice; conditions: for % Transporter Occupancy, DAT: 60 minutes after treatment, vs vehicle; for Mean Specific Binding (dpm) ± S.E.M., DAT: mice sacrificed 60 minutes after treatment, striatum
T5 construct: Striatum was used to determine occupancy of DA transporter sites; from tissue; host or cells: C57BL/6 mouse striatum homogenate
T5 sequence (Q61327 whole entry): as the sequence (P23977 whole entry) above, with S21P, A57V, A194S, H600R, L619V counted along it

Rats [4] = experiment: Rat forced swim test; type: in vivo; conditions: PO, 24 hours and 30-60 minutes before the 5 minute test
mice [5] = experiment: Mouse tail suspension test; type: in vivo; conditions: PO, 30-60 minutes before the test, 5 minutes recording
mice [6] = experiment: Mouse locomotor activity; type: in vivo; conditions: PO; further: unit not given here
How it was run: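 Animals pretreated with vehicle or compound, then placed individually in photocell cages. Horizontal and vertical activity recorded in 5-min bins for up to 60 min. Analysed by one-way ANOVA with post-hoc tests.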

Rats [7] = experiment: Rat locomotor activity; type: in vivo; conditions: PO
Protocol: In order to ensure effects of the compounds on immobility time were not related to a general stimulant effect on baseline motor activity, locomotor activity was assessed using photocell monitored cages (Med-Associates Inc.). Each test chamber was equipped with infrared photocell beams to measure movement of the animals. Horizontal and vertical activity were measured
Rats or mice were pretreated with vehicle or test compounds and placed back in home cage, following which they will be individually placed in locomotor cages and activity was monitored in 5 minute intervals for up to 60 min.
Data were analyzed by one way analysis of variance (ANOVA) followed by post-hoc comparisons where appropriate. An effect was considered significant if p < 0.05. Data are represented as the mean and standard error to the mean (s.e.m).

[8] = target: Norepinephrine Transporter (NET) Sites in Mouse Brain (Mus musculus, UniProt O55192); conditions: PO; for % Transporter Occupancy, NET: 60 minutes after treatment, vs vehicle; for Mean Specific Binding (dpm) ± S.E.M., NET: mice sacrificed 60 minutes after treatment, cortex
Chain of Norepinephrine Transporter (NET) Sites in Mouse Brain (O55192 whole entry): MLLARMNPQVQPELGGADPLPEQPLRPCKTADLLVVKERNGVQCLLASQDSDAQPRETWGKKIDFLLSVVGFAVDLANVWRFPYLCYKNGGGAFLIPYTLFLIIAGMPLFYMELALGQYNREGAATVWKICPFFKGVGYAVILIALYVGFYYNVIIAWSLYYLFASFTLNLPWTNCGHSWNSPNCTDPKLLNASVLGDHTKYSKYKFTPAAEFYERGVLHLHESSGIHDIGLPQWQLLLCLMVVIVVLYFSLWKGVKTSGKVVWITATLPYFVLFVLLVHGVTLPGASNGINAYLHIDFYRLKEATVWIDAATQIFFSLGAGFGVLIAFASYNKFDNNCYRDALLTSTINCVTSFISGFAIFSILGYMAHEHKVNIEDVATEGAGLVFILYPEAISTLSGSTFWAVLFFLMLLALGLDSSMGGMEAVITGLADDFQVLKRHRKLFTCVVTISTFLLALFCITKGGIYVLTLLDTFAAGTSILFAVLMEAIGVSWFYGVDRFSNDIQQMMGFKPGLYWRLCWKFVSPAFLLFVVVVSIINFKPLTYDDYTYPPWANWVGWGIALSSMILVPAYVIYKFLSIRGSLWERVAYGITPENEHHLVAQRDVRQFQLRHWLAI

[9] = literature; cited from earlier work
serotonin uptake sites = serotonin uptake sites (Homo sapiens, UniProt P31645); conditions: compared with the racemic compound; U.S. Patent No. 6,372,919; cited from earlier work
Chain of serotonin uptake sites (P31645 whole entry): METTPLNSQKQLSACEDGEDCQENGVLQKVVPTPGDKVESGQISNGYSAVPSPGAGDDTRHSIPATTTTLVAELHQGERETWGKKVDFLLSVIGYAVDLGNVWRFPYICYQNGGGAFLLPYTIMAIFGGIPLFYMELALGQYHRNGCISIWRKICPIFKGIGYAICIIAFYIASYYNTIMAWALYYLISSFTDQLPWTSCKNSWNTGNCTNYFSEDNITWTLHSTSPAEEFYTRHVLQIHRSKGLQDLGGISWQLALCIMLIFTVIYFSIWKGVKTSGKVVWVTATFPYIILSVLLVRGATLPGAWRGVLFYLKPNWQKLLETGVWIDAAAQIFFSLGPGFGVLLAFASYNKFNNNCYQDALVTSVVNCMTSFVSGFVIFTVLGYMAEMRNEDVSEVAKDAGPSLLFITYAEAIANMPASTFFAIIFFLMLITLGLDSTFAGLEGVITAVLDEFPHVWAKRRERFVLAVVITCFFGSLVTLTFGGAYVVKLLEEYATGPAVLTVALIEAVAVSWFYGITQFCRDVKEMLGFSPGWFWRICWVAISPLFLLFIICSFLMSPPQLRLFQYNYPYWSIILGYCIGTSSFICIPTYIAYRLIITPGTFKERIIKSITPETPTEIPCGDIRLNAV

## CC(N(C)C)C1(c2ccc3ccccc3c2)CCCCC1 (single isomer, unassigned) [56 E1, N,N-dimethyl-1-(1-(naphthalen-2-yl)cyclohexyl)ethanamine]
Serotonin transporter
  IC50: 2.9 nM
Dopamine transporter
  IC50: 24 nM
[1]
  IC50: 2.3 nM
[2]; 1 mg/kg
  % Transporter Occupancy, SERT: 19%
  Mean Specific Binding (dpm) ± S.E.M., SERT: 2625 ± 138 dpm
[2]; 3 mg/kg
  % Transporter Occupancy, SERT: 58%
  Mean Specific Binding (dpm) ± S.E.M., SERT: 1346 ± 109 dpm
[2]; 10 mg/kg
  % Transporter Occupancy, SERT: 91%
  Mean Specific Binding (dpm) ± S.E.M., SERT: 278 ± 42 dpm
[2]; 30 mg/kg
  % Transporter Occupancy, SERT: 95%
  Mean Specific Binding (dpm) ± S.E.M., SERT: 151 ± 60 dpm
[3]; 1 mg/kg
  % Transporter Occupancy, DAT: 5%
  Mean Specific Binding (dpm) ± S.E.M., DAT: 41561 ± 1611 dpm
[3]; 3 mg/kg
  % Transporter Occupancy, DAT: 4%
  Mean Specific Binding (dpm) ± S.E.M., DAT: 42127 ± 2130 dpm
[3]; 10 mg/kg
  % Transporter Occupancy, DAT: 23%
  Mean Specific Binding (dpm) ± S.E.M., DAT: 33478 ± 1779 dpm
[3]; 30 mg/kg
  % Transporter Occupancy, DAT: 67%
  Mean Specific Binding (dpm) ± S.E.M., DAT: 14637 ± 1567 dpm
Rats [4]; 3 mg/kg
  Rat Forced Swim (Means ± S.E.M.) Climbing: 7.1 ± 1.6
  Rat Forced Swim (Means ± S.E.M.) Immobility: 52.2 ± 1.6
  Rat Forced Swim (Means ± S.E.M.) Swimming: 0.3 ± 0.2
Rats [4]; 10 mg/kg
  Rat Forced Swim (Means ± S.E.M.) Climbing: 8.6 ± 0.9
  Rat Forced Swim (Means ± S.E.M.) Immobility: 50.7 ± 1.0
  Rat Forced Swim (Means ± S.E.M.) Swimming: 0.8 ± 0.3
Rats [4]; 30 mg/kg
  Rat Forced Swim (Means ± S.E.M.) Climbing: 17.9 ± 2.4
  Rat Forced Swim (Means ± S.E.M.) Immobility: 40.4 ± 2.7
  Rat Forced Swim (Means ± S.E.M.) Swimming: 1.0 ± 0.4
Mice [5]; 3 mg/kg
  Mouse Tail Suspension Mean Immobility Time ± S.E.M.: 184.0 ± 4.8
Mice [5]; 10 mg/kg
  Mouse Tail Suspension Mean Immobility Time ± S.E.M.: 174.8 ± 6.1
Mice [5]; 30 mg/kg
  Mouse Tail Suspension Mean Immobility Time ± S.E.M.: 141.9 ± 7.4
Mice [6]; 3 mg/kg
  Mouse Locomotor Activity Total Distance Traveled ± S.E.M.: 410.2 ± 89.3
Mice [6]; 10 mg/kg
  Mouse Locomotor Activity Total Distance Traveled ± S.E.M.: 440.2 ± 62.6
Mice [6]; 30 mg/kg
  Mouse Locomotor Activity Total Distance Traveled ± S.E.M.: 252.2 ± 55.8
Rats [7]; 3 mg/kg
  Rat Locomotor Activity Total Distance Traveled ± S.E.M.: 1227.9 ± 84.4
Rats [7]; 10 mg/kg
  Rat Locomotor Activity Total Distance Traveled ± S.E.M.: 1230.8 ± 64.8
Rats [7]; 30 mg/kg
  Rat Locomotor Activity Total Distance Traveled ± S.E.M.: 1359.8 ± 132.7
[8]; 1 mg/kg
  % Transporter Occupancy, NET: 20%
  Mean Specific Binding (dpm) ± S.E.M., NET: 616 ± 50 dpm
[8]; 3 mg/kg
  % Transporter Occupancy, NET: 52%
  Mean Specific Binding (dpm) ± S.E.M., NET: 368 ± 17 dpm
[8]; 10 mg/kg
  % Transporter Occupancy, NET: 86%
  Mean Specific Binding (dpm) ± S.E.M., NET: 106 ± 20 dpm
[8]; 30 mg/kg
  % Transporter Occupancy, NET: 98%
  Mean Specific Binding (dpm) ± S.E.M., NET: 19 ± 2 dpm

## Clc1ccc(C23CNCC2C3)cc1Cl (single isomer, unassigned; (+)) [DOV 21,947, (+)-1-(3,4-dichlorophenyl)-3-azabicyclo[3.1.0]hexane]
[9]
  immobility in the tail suspension test: dose-dependent reduction in immobility
Serotonin uptake sites
  affinity for the serotonin uptake sites: significantly greater affinity
